Source: patent US7671212B2, “Isothiazole dioxides as CXC- and CC-chemokine receptor ligands” (Schering Corporation, priority 2003, dated 2010)
“And” between values parts separate entries of the source, which are not always exact repeats. Identical values can stand only once.

How the values were obtained:
hCXCR2 = molecular target: T1, hCXCR2 (Homo sapiens, UniProt P25025); assay: CXCR2 SPA assay ([125I]-IL-8 binding, incl. alternative 50 μl and 200 μl protocols); conditions: hCXCR2-CHO membranes
T1 construct: purchased Biosignal / Biosignal Packard; host or cells: CHO
T1 sequence (P25025 1-360): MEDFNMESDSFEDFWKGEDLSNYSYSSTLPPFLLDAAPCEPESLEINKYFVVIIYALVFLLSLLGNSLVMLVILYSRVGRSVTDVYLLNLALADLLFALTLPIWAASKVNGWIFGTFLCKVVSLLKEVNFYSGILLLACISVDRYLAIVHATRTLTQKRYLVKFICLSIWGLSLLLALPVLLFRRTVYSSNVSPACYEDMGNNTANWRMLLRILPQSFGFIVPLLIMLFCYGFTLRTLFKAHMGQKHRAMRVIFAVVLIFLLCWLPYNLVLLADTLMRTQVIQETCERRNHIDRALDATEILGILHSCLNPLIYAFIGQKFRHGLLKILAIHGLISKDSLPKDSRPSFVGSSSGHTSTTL
Method: For each well of a 96 well plate, a reaction mixture of 4 μg hCXCR2-CHO overexpressing membranes (Biosignal) and 200 μg/well WGA-SPA beads (Amersham) in 100 μl was prepared in CXCR2 assay buffer (25 mM HEPES, pH 7.4, 2 mM CaCl2, 1 mM MgCl2). A 0.4 nM stock of ligand, [125I]-IL-8 (NEN), was prepared in the CXCR2 assay buffer. 20× stock solutions of test compounds were prepared in DMSO (Sigma). A 6× stock solution of GRO-α (R&D) was prepared in CXCR2 assay buffer. The above solutions were added to a 96-well assay plate (PerkinElmer or Corning) as follows: 10 μl test compound or DMSO, 40 ul CXCR2 assay buffer or GRO-α stock, 100 μl of reaction mixture, 50 μl of ligand stock (Final [Ligand]=0.1 nM). When 40× stock solutions of test compounds in DMSO were prepared, then the above protocol was used except instead 5 μl test compound or DMSO and 45 μl CXCR2 assay buffer were used.
Alternative CXCR2 SPA Assay
Protocol Using the CXCR2 50 μl Assay
For each 50 μl reaction, a working stock of 0.031 μg/μl hCXCR2-CHO over-expressing membranes with a specific activity of 0.4 pmol/mg (Biosignal Packard) and 2.5 μg/μl WGA-SPA beads (Perkin Elmer Life Sciences) was prepared in CXCR2 assay buffer (25 mM HEPES, pH 7.4, 2.0 mM CaCl2, 1 mM MgCl2) (Sigma). This mixture was incubated on ice for 5 minutes. A 0.50 nM stock of ligand, [^125I]-IL-8 (Perkin Elmer Life Sciences), was prepared in the CXCR2 assay buffer. Test compounds were first serially diluted by half-logs in DMSO (Sigma) and then diluted 13.3-fold in CXCR2 assay buffer. The above solutions were added to a Corning NBS (non-binding surface) 96-well assay plate as follows: 20 μl test compound or 7.5% DMSO (final [DMSO]=3%), 20 μl of membranes and SPA bead mixture (final [membrane]=0.625 μg/reaction; final [SPA bead]=50 μg/reaction), 10 μl of ligand stock (final [^125I-IL-8]=0.10 nM). The assay plates were incubated for 2 hours before cpm/well were determined in a Microbeta Trilux counter (Perkin Elmer Life Sciences). IC50 values were quantified using nonlinear regression analysis in GraphPad Prism.
Protocol Using the CXCR2 200 μl Assay
For each 200 μl reaction, a working stock of 0.02 μg/μl hCXCR2-CHO over-expressing membranes with a specific activity of 0.6 pmol/mg (Biosignal Packard) and 2 μg/μl WGA-SPA beads (Perkin Elmer Life Sciences) was prepared in CXCR2 assay buffer (25 mM HEPES, pH 7.4, 2.0 mM CaCl2, 1 mM MgCl2) (Sigma). This mixture was incubated on ice for 5 minutes. A 0.40 nM stock of ligand, [^125I]-IL-8 (Perkin Elmer Life Sciences), was prepared in the CXCR2 assay buffer. Test compounds were first serially diluted by half-logs in DMSO (Sigma) and then diluted […] in CXCR2 assay buffer. The above solutions were added to a Corning NBS (non-binding surface) 96-well assay plate as follows: 50 μl test compound or 10% DMSO (final [DMSO]=2.5%), 100 μl of membranes and SPA bead mixture (final [membrane]=2 μg/reaction; final [SPA bead]=200 μg/reaction), 50 μl of ligand stock (final [^125I-IL-8]=0.10 nM). The assay plates were incubated for 2 hours before cpm/well were determined in a Microbeta Trilux counter (Perkin Elmer Life Sciences). IC50 values were quantified using nonlinear regression analysis in GraphPad Prism.

hCXCR1 = molecular target: T2, hCXCR1 (Homo sapiens, UniProt P25024); assay: CXCR1 SPA assay ([125I]-IL-8 binding, incl. alternative Biosignal Packard and Euroscreen membrane protocols); conditions: hCXCR1-CHO membranes
T2 construct: purchased Biosignal / Biosignal Packard; Euroscreen (alternative protocol); host or cells: CHO
T2 sequence (P25024 1-350): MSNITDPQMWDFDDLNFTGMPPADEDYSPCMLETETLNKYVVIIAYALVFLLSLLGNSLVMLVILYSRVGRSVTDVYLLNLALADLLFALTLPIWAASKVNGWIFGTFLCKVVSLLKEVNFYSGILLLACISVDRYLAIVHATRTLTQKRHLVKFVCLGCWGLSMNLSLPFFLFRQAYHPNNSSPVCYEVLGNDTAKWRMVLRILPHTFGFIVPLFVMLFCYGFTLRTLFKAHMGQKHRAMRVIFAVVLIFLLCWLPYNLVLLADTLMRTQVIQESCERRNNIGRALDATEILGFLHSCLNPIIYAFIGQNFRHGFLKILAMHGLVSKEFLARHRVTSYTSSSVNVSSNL
Method: For each well of a 96 well plate, a reaction mixture of 10 μg hCXCR1-CHO overexpressing membranes (Biosignal) and 200 μg/well WGA-SPA beads (Amersham) in 100 μl was prepared in CXCR1 assay buffer (25 mM HEPES, pH 7.8, 2 mM CaCl2, 1 mM MgCl2, 125 mM NaCl, 0.1% BSA) (Sigma). A 0.4 nM stock of ligand, [125I]-IL-8 (NEN) was prepared in the CXCR1 assay buffer. 20× stock solutions of test compounds were prepared in DMSO (Sigma). A 6× stock solution of IL-8 (R&D) was prepared in CXCR2 assay buffer. The above solutions were added to a 96-well assay plate (PerkinElmer) as follows: 10 μl test compound or DMSO, 40 μl CXCR1 assay buffer or IL-8 stock, 100 μl of reaction mixture, 50 μl of ligand stock (Final [Ligand]=0.1 nM).
Alternative CXCR1 SPA Assay
Protocol Using CXCR1-Expressing Membranes from Biosignal Packard
For each 50 μl reaction, a working stock of 0.25 μg/μl hCXCR1-CHO over-expressing membranes with a specific activity of 0.05 pmol/mg (Biosignal Packard) and 25 μg/μl WGA-SPA beads (Perkin Elmer Life Sciences) was prepared in CXCR1 assay buffer (25 mM HEPES, pH 7.8, 0.1 mM CaCl2, 1 mM MgCl2, 100 mM NaCl) (Sigma). […] The assay plates were incubated for 4 hours before cpm/well were determined in a Microbeta Trilux counter (Perkin Elmer Life Sciences). IC50 values were quantified using nonlinear regression analysis in GraphPad Prism. […]

CCR7 = molecular target: T3, CCR7 (Homo sapiens, UniProt P32248); assay: CCR7 [35S]GTPγS exchange assay (SPA, Ba/F3-CCR7 membranes, MIP-3β); assay type: biochemical; conditions: 2 nM MIP-3β
T3 construct: expressed in transfected cells; host or cells: Ba/F3
T3 sequence (P32248 25-378): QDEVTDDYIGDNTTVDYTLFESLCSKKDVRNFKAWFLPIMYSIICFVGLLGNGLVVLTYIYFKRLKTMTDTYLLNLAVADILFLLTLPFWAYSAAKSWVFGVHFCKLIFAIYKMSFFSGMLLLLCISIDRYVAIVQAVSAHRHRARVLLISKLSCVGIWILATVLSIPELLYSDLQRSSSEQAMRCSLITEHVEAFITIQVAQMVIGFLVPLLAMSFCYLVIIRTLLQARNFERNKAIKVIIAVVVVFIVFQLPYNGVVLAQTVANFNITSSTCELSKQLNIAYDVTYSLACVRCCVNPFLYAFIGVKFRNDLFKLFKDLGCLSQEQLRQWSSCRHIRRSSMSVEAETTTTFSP
Method: CCR7 Membrane Preparation.
Ba/F3-CCR7 membranes were prepared as previously described (Hipkin et al., J. Biol. Chem., 272, 1997, 13869-76). Cells were pelleted by centrifugation, incubated in homogenization buffer (10 mM Tris-HCl, 5 mM EDTA, 3 mM EGTA, pH 7.6) and 1 μM PMSF for 30 min. on ice. The cells were then lysed with a Dounce homogenizer using stirrer type RZR3 polytron homogenizer (Caframo, Wiarton, Ont.) with 12 strokes at 900 RPM. The intact cells and nuclei were removed by centrifugation at 500×g for 5 min. The cell membranes in the supernatant were then pelleted by centrifugation at 100,000×g for 30 min. The membranes were then resuspended in glygly buffer (20 mM glycylglycine, 1 mM MgCl2, 250 mM sucrose, pH 7.2), aliquoted, quick frozen and stored at −80° C.
CCR7 [^35S]GTPγS Exchange Assay.
The exchange of guanosine 5′-[γ-^35S]triphospate ([^35S]GTPγS, triethylammonium salt; specific activity=1250 Ci/mmol; NEN Boston, Mass.) was measured using a scintillation proximity assay (SPA) as previously described (Cox, et. al., Mol. Pharmacol., 59, 2001, 707-15). […] Membrane-bound [^35S]GTPγS was measured using a 1450 Microbeta Trilux counter (Wallac, Gaithersburg, Md.).

Row | Ki (hCXCR2) | Ki (hCXCR1) [nM] | EC50 (CCR7) [nM] | SMILES
1 | 7.6 to 51 nM |  |  | CCOC(=O)C1=C(Nc2cccc(C(=O)N(C)C)c2O)C(N[C@H](CC)c2ccc(C)o2)=NS1(=O)=O [Example 1]
2 | 7.6 nM and 7.6 to 51 nM |  |  | CC[C@@H](NC1=NS(=O)(=O)C=C1Nc1cccc(C(=O)N(C)C)c1O)c1ccc(C)o1 [Example 2]
3 | 7.6 to 51 nM |  |  | CCOC(=O)C1=C(N[C@H](CC)c2ccccc2)C(Nc2cccc(C(=O)N(C)C)c2O)=NS1(=O)=O [Example 3]
4 | 7.6 to 51 nM |  |  | CC[C@@H](NC1=CS(=O)(=O)N=C1Nc1cccc(C(=O)N(C)C)c1O)c1ccccc1 [Example 4]
5 | 7.6 to 51 nM |  |  | CCOC(=O)C1=C(Nc2cccc(C(=O)N(C)C)c2O)C(N[C@@H](c2cc(C)c(C)o2)C(C)C)=NS1(=O)=O [Example 5]
6 | 19 nM and 7.6 to 51 nM | 345 |  | Cc1cc([C@H](NC2=NS(=O)(=O)C=C2Nc2cccc(C(=O)N(C)C)c2O)C(C)C)oc1C [Example 6]
7 |  |  | 9500 | CCOC(=O)C1=C(Nc2cccc(C(=O)N(C)C)c2O)C(N[C@H](CC)c2cc(C(C)C)co2)=NS1(=O)=O [Example 162]
